Test results from PubChem BioAssay (NCI).
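The compound was tested at five concentrations on cells cultured in 96-well plates, with a 48-hour exposure period. GI50 = concentration required for 50% inhibition of growth. TGI is the concentration that stops growth completely.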

Key:
Assay in all cases: NCI tumour cell line growth inhibition, 48 h
[1] = system: 786-0 renal
[2] = system: A498 renal
[3] = system: A549 NSCLC
[4] = system: ACHN renal
[5] = system: BT-549 breast
[6] = system: CAKI-1 renal
[7] = system: CCRF-CEM leukemia
[8] = system: COLO 205 colon
[9] = system: DU-145 prostate
[10] = system: HCC-2998 colon
[11] = system: HCT-116 colon
[12] = system: HCT-15 colon
[13] = system: HL-60(TB) leukemia
[14] = system: HOP-62 NSCLC
[15] = system: HOP-92 NSCLC
[16] = system: HS 578T breast
[17] = system: HT29 colon
[18] = system: IGROV1 ovarian
[19] = system: K-562 leukemia
[20] = system: KM12 colon
[21] = system: LOX IMVI melanoma
[22] = system: M14 melanoma
[23] = system: MALME-3M melanoma
[24] = system: MCF7 breast
[25] = system: MDA-MB-231 breast
[26] = system: MDA-MB-435
[27] = system: MOLT-4 leukemia
[28] = system: NCI-H226 lung
[29] = system: NCI-H23 lung
[30] = system: NCI-H460 lung
[31] = system: NCI-H522 lung
[32] = system: NCI/ADR-RES ovarian
[33] = system: OVCAR-3 ovarian
[34] = system: OVCAR-4 ovarian
[35] = system: OVCAR-5 ovarian
[36] = system: OVCAR-8 ovarian
[37] = system: PC-3 prostate
[38] = system: RPMI-8226 leukemia
[39] = system: RXF 393 renal
[40] = system: SF-268 CNS
[41] = system: SF-295 CNS
[42] = system: SF-539 CNS
[43] = system: SK-MEL-2 melanoma
[44] = system: SK-MEL-28 melanoma
[45] = system: SK-MEL-5 melanoma
[46] = system: SK-OV-3 ovarian
[47] = system: SN12C renal
[48] = system: SNB-19 CNS
[49] = system: SNB-75 CNS
[50] = system: SR leukemia
[51] = system: SW-620 colon
[52] = system: T-47D breast
[53] = system: TK-10 renal
[54] = system: U251 CNS
[55] = system: UACC-257 melanoma
[56] = system: UACC-62 melanoma
[57] = system: UO-31 renal

`CCN(Cc1ccccn1)c1ccc(CO)c(Cl)c1` was tested, and the GI50 [1] was > 100 µM, the TGI [1] was > 100 µM and the GI50 [2] was 0.125 µM. The TGI [2] was 0.266 µM, the GI50 [3] was 16.6 µM and the TGI [3] was > 100 µM. For the same compound, the GI50 [4] was > 100 µM, the TGI [4] was > 100 µM and the GI50 [5] was > 100 µM. The TGI [5] was > 100 µM, the GI50 [6] was 39 µM and the TGI [6] was > 100 µM. For the same compound, the GI50 [7] was > 100 µM, the TGI [7] was > 100 µM and the GI50 [8] was 4.65 µM. The TGI [8] was 16 µM, the GI50 [9] was > 100 µM and the TGI [9] was > 100 µM. For the same compound, the GI50 [10] was 18.1 µM, the TGI [10] was > 100 µM and the GI50 [11] was 1.12 µM. For the same compound, the TGI [11] was > 100 µM, the GI50 [12] was > 100 µM and the TGI [12] was > 100 µM. The GI50 [13] was 46 µM, the TGI [13] was > 100 µM and the GI50 [14] was 46.1 µM. The TGI [14] was > 100 µM, the GI50 [15] was 10 µM and the TGI [15] was > 96.6 µM. The GI50 [16] was > 100 µM, the TGI [16] was > 100 µM and the GI50 [17] was > 69.8 µM. For the same compound, the TGI [17] was > 100 µM, the GI50 [18] was 0.68 µM and the TGI [18] was 3.89 µM. The GI50 [19] was 17.3 µM, the TGI [19] was > 100 µM and the GI50 [20] was > 100 µM. The TGI [20] was > 100 µM, the GI50 [21] was > 100 µM and the TGI [21] was > 100 µM. The GI50 [22] was > 100 µM, the TGI [22] was > 100 µM and the GI50 [23] was > 100 µM. For the same compound, the TGI [23] was > 100 µM, the GI50 [24] was 2.78 µM and the TGI [24] was > 100 µM. The GI50 [25] was > 100 µM, the TGI [25] was > 100 µM and the GI50 [26] was > 100 µM. The TGI [26] was > 100 µM, the GI50 [27] was > 100 µM and the TGI [27] was > 100 µM. The GI50 [28] was 0.151 µM, the TGI [28] was 0.332 µM and the GI50 [29] was > 100 µM. For the same compound, the TGI [29] was > 100 µM, the GI50 [30] was 2.71 µM and the TGI [30] was 40.7 µM. The GI50 [31] was > 100 µM, the TGI [31] was > 100 µM and the GI50 [32] was 52.2 µM. The TGI [32] was > 100 µM, the GI50 [33] was 3.75 µM and the TGI [33] was 23.3 µM. It also gave a GI50 [34] of 2.32 µM, a TGI [34] of 34.7 µM and a GI50 [35] of 0.385 µM. The TGI [35] was 1.58 µM, the GI50 [36] was 59.4 µM and the TGI [36] was > 100 µM. For the same compound, the GI50 [37] was > 89.8 µM, the TGI [37] was > 100 µM and the GI50 [38] was 26.3 µM. For the same compound, the TGI [38] was > 100 µM, the GI50 [39] was > 28.4 µM and the TGI [39] was > 100 µM. The GI50 [40] was > 100 µM, the TGI [40] was > 100 µM and the GI50 [41] was 4.91 µM. For the same compound, the TGI [41] was > 100 µM, the GI50 [42] was > 100 µM and the TGI [42] was > 100 µM. The GI50 [43] was > 76.8 µM, the TGI [43] was > 100 µM and the GI50 [44] was > 100 µM. The TGI [44] was > 100 µM, the GI50 [45] was 72.1 µM and the TGI [45] was > 100 µM. The GI50 [46] was 36.1 µM, the TGI [46] was > 100 µM and the GI50 [47] was > 100 µM. For the same compound, the TGI [47] was > 100 µM, the GI50 [48] was > 100 µM and the TGI [48] was > 100 µM. For the same compound, the GI50 [49] was > 51.7 µM, the TGI [49] was > 100 µM and the GI50 [50] was > 100 µM. The TGI [50] was > 100 µM, the GI50 [51] was 22.8 µM and the TGI [51] was > 100 µM. For the same compound, the GI50 [52] was 0.927 µM, the TGI [52] was 5.5 µM and the GI50 [53] was 0.199 µM. The TGI [53] was 0.744 µM, the GI50 [54] was 23.6 µM and the TGI [54] was > 100 µM. It also gave a GI50 [55] of 0.719 µM, a TGI [55] of 2.42 µM and a GI50 [56] of 0.923 µM. The TGI [56] was 7.83 µM, the GI50 [57] was 69.3 µM and the TGI [57] was > 100 µM.

`CC(C)N(Cc1c(F)cccc1F)c1ccc(CO)c(Cl)c1` was tested, and the GI50 [1] was 13.7 µM, the TGI [1] was 29.6 µM and the GI50 [2] was 0.0488 µM. It also gave a TGI [2] of 0.148 µM, a GI50 [3] of 0.643 µM and a TGI [3] of 13.4 µM. The GI50 [4] was 15.3 µM, the TGI [4] was 29.9 µM and the GI50 [5] was 18.7 µM. It also gave a TGI [5] of 34.3 µM, a GI50 [6] of 1.25 µM and a TGI [6] of 15 µM. It also gave a GI50 [7] of 17.8 µM, a TGI [7] of 40.2 µM and a GI50 [8] of 1.02 µM. The TGI [8] was 3.02 µM, the GI50 [9] was 12.2 µM and the TGI [9] was 27.3 µM. For the same compound, the GI50 [10] was 2.06 µM, the TGI [10] was 13.8 µM and the GI50 [11] was 0.0408 µM. It also gave a TGI [11] of 12.4 µM, a GI50 [12] of 11.7 µM and a TGI [12] of 29.1 µM. The GI50 [13] was 3.92 µM, the TGI [13] was 34.5 µM and the GI50 [14] was 0.553 µM. For the same compound, the TGI [14] was 19.6 µM, the GI50 [15] was 0.111 µM and the TGI [15] was 1.73 µM. It also gave a GI50 [16] of 17.7 µM, a TGI [16] of 40.8 µM and a GI50 [17] of 2.62 µM. For the same compound, the TGI [17] was 17.5 µM, the GI50 [18] was 0.0424 µM and the TGI [18] was 0.186 µM. The GI50 [19] was 0.354 µM, the TGI [19] was 17.9 µM and the GI50 [20] was 15.8 µM. For the same compound, the TGI [20] was 33.1 µM, the GI50 [21] was 18.5 µM and the TGI [21] was 34.7 µM. For the same compound, the GI50 [22] was 19.1 µM, the TGI [22] was 37.7 µM and the GI50 [23] was 17.5 µM. For the same compound, the TGI [23] was 33.6 µM, the GI50 [24] was 0.0655 µM and the TGI [24] was 13.6 µM. The GI50 [25] was 15.3 µM, the TGI [25] was 35.8 µM and the GI50 [26] was 17.3 µM. The TGI [26] was 34.6 µM, the GI50 [27] was 19.5 µM and the TGI [27] was 46 µM. For the same compound, the GI50 [28] was 0.0727 µM, the TGI [28] was 0.215 µM and the GI50 [29] was 14 µM. The TGI [29] was 32.4 µM, the GI50 [30] was 0.134 µM and the TGI [30] was 2.63 µM. It also gave a GI50 [31] of 18 µM, a TGI [31] of 35.2 µM and a GI50 [32] of 10.9 µM. For the same compound, the TGI [32] was 27.9 µM, the GI50 [33] was 0.171 µM and the TGI [33] was 0.565 µM. For the same compound, the GI50 [34] was 0.119 µM, the TGI [34] was 0.832 µM and the GI50 [35] was 0.0702 µM. For the same compound, the TGI [35] was 0.253 µM, the GI50 [36] was 6.65 µM and the TGI [36] was 24.7 µM. The GI50 [37] was 12.1 µM, the TGI [37] was 26.1 µM and the GI50 [38] was 0.529 µM. For the same compound, the TGI [38] was 27.5 µM, the GI50 [39] was 1.63 µM and the TGI [39] was 20.6 µM. For the same compound, the GI50 [40] was 18.3 µM, the TGI [40] was 34.9 µM and the GI50 [41] was 0.157 µM. The TGI [41] was 2.53 µM, the GI50 [42] was 16.8 µM and the TGI [42] was 31.8 µM. For the same compound, the GI50 [43] was 0.848 µM, the TGI [43] was 21.7 µM and the GI50 [44] was 13 µM. It also gave a TGI [44] of 26.6 µM, a GI50 [45] of 12.7 µM and a TGI [45] of 25.6 µM. It also gave a GI50 [46] of 2.64 µM, a TGI [46] of 12.9 µM and a GI50 [47] of 12.1 µM. The TGI [47] was 25.7 µM, the GI50 [48] was 19.1 µM and the TGI [48] was > 52.3 µM. It also gave a GI50 [49] of 13 µM, a TGI [49] of 26.6 µM and a GI50 [50] of 19.4 µM. The TGI [50] was 46.6 µM, the GI50 [51] was 0.355 µM and the TGI [51] was 18.3 µM. For the same compound, the GI50 [52] was 0.0502 µM, the TGI [52] was 0.216 µM and the GI50 [53] was 0.0326 µM. For the same compound, the TGI [53] was 0.145 µM, the GI50 [54] was 0.228 µM and the TGI [54] was 17.3 µM. It also gave a GI50 [55] of 0.0582 µM, a TGI [55] of 0.195 µM and a GI50 [56] of 0.0748 µM. It also gave a TGI [56] of 0.398 µM, a GI50 [57] of 3.14 µM and a TGI [57] of 25 µM.
